The nature of data set [1]: Electroacoustic sonic amplitude (ESA) electrokinetics of dye slurries as a function of pH. It is filed as physicochemical.
Data set [2] can be described thus: Buffering of S1 slurry: pH measured after additions of aqueous buffering salt. In kind it is physicochemical. Conditions: small additions of 0.1 mole/L salt to S1 slurry.
Description: Measurements of pH were made using a Corning combination pH electrode, calibrated with VWR buffers of pH 4.0 and pH 7.0, using a Radiometer Copenhagen PHM63 pH meter. Equilibrated measurements were taken at about 24° C. while stirring the solutions or slurries.
About 97.0 g of the above described S1 slurry were placed in a 200 mL beaker upon a magnetic stirrer, and this slurry was moderately stirred using a magnetic stirring bar.
About 93.9 g of the above described S1 slurry were placed in a 200 mL beaker upon a magnetic stirrer, and was moderately stirred. […] Aliquots of 0.1 mole/L aqueous sodium citrate were added, and pH was recorded after each addition.
About 95.7 g of the above described S1 slurry were placed in a 200 mL beaker with moderate stirring. […] Aliquots of 0.1 mole/L aqueous sodium tartrate were added, and pH was recorded.
About 95.4 g of the above described S1 slurry were placed in a 200 mL beaker and was moderately stirred.
About 93.3 g of the above described S1 slurry were placed in a 200 mL beaker and stirred.
The conditions of data set [3]: Langmuir 8, 291 (1992), cited from earlier work.
For data set [4] the following is noted: Table 1; cited from earlier work.
Where [5] appears, read: FD2 slurry without surfactant, Texter.

SMILES strings stand for the structures. Entries after “also recorded” stand apart in the source; their conditions may differ. Like-named read-outs stand apart in the source and are kept apart here.

On to `CC1=NN(c2ccc(C(=O)O)cc2)C(=O)C1=CC=Cc1c(C)nn(-c2ccc(C(=O)O)cc2)c1O` [FD1], for which the “lowest apparent pKa relative to FD2” value in data set [1] (FD1 slurries compared with FD2) was “three pH units lower”. Further, the “lowest apparent pKa” value in data set [1] (FD1 slurries without dispersing aid, FIG. 2) is “about 2”. In addition, the “solubility of the dye with increasing pH” value in data set [1] (above pH 5, upturn in ESA) is “marked increased solubility”. Besides, the intrinsic electrokinetic charge entry in data set [1] (sign of charge, ESA) is given as “negative”. As to `O=C(O)c1ccccc1` [sodium benzoate], in data set [2], the “effect on slurry pH / pH control (in words)” value is reported as “very effective at providing significant pH control at relatively low concentrations”. Still for that read-out and setting: next, `CC(=O)O` [sodium acetate]: “increases the slurry pH to a significant extent; also recorded: significantly increases the slurry pH”. As for `CC1=NN(c2ccc(C(=O)O)cc2)C(=O)C1=Cc1c(C)nn(-c2ccc(C(=O)O)cc2)c1O` [FD2], in data set [3] (setting [5]), the “pH interval of abrupt S-shaped ESA transition” value is given as 4-6 pH and the “predominately carboxy group-based surface pKa” value is reported as “about 5.0”. In addition, the intrinsic electrokinetic charge result in data set [3] (sign of charge, shown earlier by Texter) is recorded as “negative”. On to `O=S1(=O)CCCCN1`, for which the “pKa at 25° C.” value in data set [4] is 12.02. With `O=C(O)c1ccco1` [Furoic acid], the “pKa at 25° C.” value in data set [4] is 3.17. As to `O=C([O-])c1ccccc1O.[Na+]` [sodium salicylate], in data set [2], the “effect on slurry pH / pH control (in words)” value is recorded as “provides some pH control”.

By pKa is commonly meant the pH at which an ionisable group is half protonated.

The values are drawn from US5750321A, “Process for buffering concentrated aqueous slurries” (priority 1997, dated 1998).
